The source of these data is patent US4520200A, “Isoxazole derivatives” (Zambon S.p.A., priority 1978, dated 1985).

Data set [1] can be described thus: tolerance in different animal species and administration ways. The format is in vivo.
A short description of data set [2]: acute toxicity, LD50, mouse. As to conditions: in vivo.
Data set [3] in a line: acute toxicity, LD50, rat. As to conditions: in vivo.

“And” between values parts separate entries of the source, which are not always exact repeats. Equal entries are not always repeated. Where only a bound is given, the exact number is not on record here.

With `CC(C)(C)NCC(O)c1cc(Br)no1` (stereo not drawn) [Z 1170, 1-(3-bromo-isoxazol-5-yl)-2-ter.butylaminoethanol], the tolerance result in data set [1] is given as “particularly favorable tolerance”. Besides, the median lethal dose (LD50) – broadly, the dose at which mortality reaches 50% – is 230 mg/kg in data set [2] (ip); 126 mg/kg and 420 µmol/kg in data set [2] (iv, i.v. (1 ml/100 g/60")); 770 mg/kg in data set [2] (po, os); 196 mg/kg and 650 µmol/kg in data set [3] (iv, i.v. (1 ml/100 g/60")); above 2000 mg/kg in data set [3] (po, os).
